Source: patent publication US9376420B2 (YUHAN CORPORATION, priority 2012, dated 2016)

Target: T1, human LXRβ (Homo sapiens, UniProt P55055)
T1 construct: expressed in transfected cells; host or cells: HEK293 cells (ATCC CRL-1573), transient transfection with pFA-hLXRβ/GAL4 and pUAS
T1 sequence (P55055 222-460 limits assumed): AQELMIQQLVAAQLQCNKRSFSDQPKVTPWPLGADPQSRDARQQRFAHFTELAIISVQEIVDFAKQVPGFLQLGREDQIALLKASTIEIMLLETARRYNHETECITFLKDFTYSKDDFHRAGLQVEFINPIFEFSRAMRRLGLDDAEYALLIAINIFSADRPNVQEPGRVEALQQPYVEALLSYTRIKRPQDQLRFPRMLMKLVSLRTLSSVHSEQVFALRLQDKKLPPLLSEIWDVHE
Assay: Assay for Transcriptional Activity of LXRβ (GAL4-hLXRβ LBD luciferase reporter, transient transfection)
Format: cell-based
Settings: HEK293 cells transfected with pFA-hLXRβ/GAL4 and pUAS, 24 hours; for Emax: fold value in comparison with the control (DMSO-treated group); for EC50: increase of transcriptional activity of LXRβ, average of three independent tests
Procedure, shortened: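 EC50 values, averaged over three independent runs, come from a four-parameter fit of 9-point half-log curves spanning 0.01–50 μM. Luciferase output was read in lysed HEK293 cells 24 h after dosing at 37 °C, following transient transfection with a GAL4-human LXRβ LBD fusion plus GAL4-responsive reporter.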

SMILES	Emax [fold]	EC50 [nM]
OC(C1=NN(c2ccccc2Cl)C(c2ccc(-c3ccc(C(F)(F)F)nc3)cc2)C1)(C(F)(F)F)C(F)(F)F (centres unmarked) [Example 272, 1-(2-chloro-phenyl)-5-[4-(6-trifluoromethyl-pyridin-3-yl)-phenyl]-3-[di-(trifluoromethyl)-hydroxy-methyl]-4,5-dihydro-1H-pyrazole]	24	2250
Cc1cc(-n2cnnn2)ncc1-c1ccc(C2CC(C(O)(C(F)(F)F)C(F)(F)F)=NN2c2ccc(F)cc2F)cc1 (centres unmarked) [Example 394, 1-(2,4-difluoro-phenyl)-5-{4-[4-methyl-6-(tetrazol-1-yl)-pyridin-3-yl]-phenyl}-3-[di-(trifluoromethyl)-hydroxy-methyl]-4,5-dihydro-1H-pyrazole]	50	83
CSc1ccc(-c2ccnc(C3CC(C(F)(F)C(F)(F)F)=NN3c3ccc(F)cc3F)c2)cc1 (centres unmarked) [Example 173, 1-(2,4-difluoro-phenyl)-5-[4-(4-methylsulfanyl-phenyl)-pyridin-2-yl]-3-pentafluoroethyl-4,5-dihydro-1H-pyrazole]	102	2490
COc1cccc(OC)c1-c1ccc(C2CC(C(O)(C(F)(F)F)C(F)(F)F)=NN2c2ccccc2Cl)cc1 (centres unmarked) [Example 245, 1-(2-chloro-phenyl)-5-(2′,6′-dimethoxy-biphenyl-4-yl)-3-[di-(trifluoromethyl)-hydroxy-methyl]-4,5-dihydro-1H-pyrazole]	57	2430
Cc1ncccc1-c1ccc(C2CC(C(O)(C(F)(F)F)C(F)(F)F)=NN2c2ccc(F)cc2F)cc1 (centres unmarked) [Example 376, 1-(2,4-difluoro-phenyl)-5-(4-(2-methyl-pyridin-3-yl)-phenyl)-3-[di-(trifluoromethyl)-hydroxy-methyl]-4,5-dihydro-1H-pyrazole]	39	325
CC(C)S(=O)(=O)N1CCCN(c2ccc(C3CC(C(O)(C(F)(F)F)C(F)(F)F)=NN3c3ccccc3Cl)cc2)CC1 (centres unmarked) [Example 324, 1-(2-chloro-phenyl)-5-[4-(4-isopropylsulfonyl-homopiperazin-1-yl)-phenyl]-3-[di-(trifluoromethyl)-hydroxy-methyl]-4,5-dihydro-1H-pyrazole]	37	3750
CC(C)Oc1ccccc1-c1ccc(C2CC(C(O)(C(F)(F)F)C(F)(F)F)=NN2c2ccccc2Cl)cc1F (centres unmarked) [Example 367, 1-(2-chloro-phenyl)-5-(2-fluoro-2′-isopropoxy-biphenyl-4-yl)-3-[di-(trifluoromethyl)-hydroxy-methyl]-4,5-dihydro-1H-pyrazole]	59	312
CCS(=O)(=O)N1CCN(c2ccc(C3CC(C(O)(C(F)(F)F)C(F)(F)F)=NN3c3ccccc3Cl)cc2)CC1 (centres unmarked) [Example 313, 1-(2-chloro-phenyl)-5-[4-(4-ethanesulfonyl-piperazin-1-yl)-phenyl]-3-[di-(trifluoromethyl)-hydroxy-methyl]-4,5-dihydro-1H-pyrazole]	56	1120
CS(=O)(=O)N1CC=C(c2ccc(F)c(C3CC(C(F)(F)C(F)(F)F)=NN3c3ccc(F)cc3F)c2)CC1 (centres unmarked) [Example 149, 1-(2,4-difluoro-phenyl)-5-[2-fluoro-5-(1-methanesulfonyl-1,2,3,6-tetrahydropyridin-4-yl)-phenyl]-3-pentafluoroethyl-4,5-dihydro-1H-pyrazole]	124	303
O=S(=O)(C1CCCCC1)N1CC=C(c2ccc(C3CC(C(O)(C(F)(F)F)C(F)(F)F)=NN3c3ccccc3Cl)cc2)CC1 (centres unmarked) [Example 307, 1-(2-chloro-phenyl)-5-[4-(1-cyclohexanesulfonyl-1,2,3,6-tetrahydropyridin-4-yl)-phenyl]-3-[di-(trifluoromethyl)-hydroxy-methyl]-4,5-dihydro-1H-pyrazole]	52	5470
COc1ncc(-c2ccc(C3CC(C(O)(C(F)(F)F)C(F)(F)F)=NN3c3ccccc3Cl)cc2)cn1 (centres unmarked) [Example 279, 1-(2-chloro-phenyl)-5-[4-(2-methoxy-pyrimidin-5-yl)-phenyl]-3-[di-(trifluoromethyl)-hydroxy-methyl]-4,5-dihydro-1H-pyrazole]	67	931

More lines, in order of falling EC50, values ahead:

Emax [fold]	EC50 [nM]	SMILES
66	8570	CSc1ccc(-c2cccc(C3CC(C(F)(F)C(F)(F)F)=NN3c3ccc(F)cc3F)c2)cc1 (centres unmarked) [Example 30, 1-(2,4-difluoro-phenyl)-5-(4′-methylsulfanyl-biphenyl-3-yl)-3-pentafluoroethyl-4,5-dihydro-1H-pyrazole]
56	7050	CS(=O)(=O)c1ccc(-c2cncc(C3CC(C(F)(F)C(F)(F)F)=NN3c3ccc(F)cc3F)c2)cn1 (centres unmarked) [Example 166, 1-(2,4-difluoro-phenyl)-5-[3-(6-methanesulfonyl-pyridin-3-yl)-pyridin-5-yl]-3-pentafluoroethyl-4,5-dihydro-1H-pyrazole]
13	6600	CC(C)(C)OC(=O)N1CC=C(c2cccc(N3N=C(C(O)(C(F)(F)F)C(F)(F)F)CC3c3ccccc3Cl)c2)CC1 (centres unmarked) [Example 433, 5-(2-chloro-phenyl)-1-[3-(1-BOC-1,2,3,6-tetrahydropyridin-4-yl)-phenyl]-3-[di-(trifluoromethyl)-hydroxy-methyl]-4,5-dihydro-1H-pyrazole]
28	5660	CSc1ccc(-c2cccc(C3CC(C(F)(F)C(F)(F)F)=NN3c3ccc(Cl)cc3F)c2)cc1 (centres unmarked) [Example 31, 1-(4-chloro-2-fluoro-phenyl)-5-(4′-methylsulfanyl-biphenyl-3-yl)-3-pentafluoroethyl-4,5-dihydro-1H-pyrazole]
20	1230	Cc1ncccc1-c1cccc(C2CC(C(F)(F)C(F)(F)F)=NN2c2ccc(F)cc2F)c1 (centres unmarked) [Example 71, 1-(2,4-difluoro-phenyl)-5-(3-(2-methyl-pyridin-3-yl)-phenyl)-3-pentafluoroethyl-4,5-dihydro-1H-pyrazole]
71	1110	CCOc1cccc(-c2ccc(C3CC(C(O)(C(F)(F)F)C(F)(F)F)=NN3c3ccccc3Cl)c(F)c2)c1 (centres unmarked) [Example 339, 1-(2-chloro-phenyl)-5-(3′-ethoxy-3-fluoro-biphenyl-4-yl)-3-[di-(trifluoromethyl)-hydroxy-methyl]-4,5-dihydro-1H-pyrazole]
107	885	CS(=O)(=O)N1CCN(c2ccc(F)c(C3CC(C(F)(F)C(F)(F)F)=NN3c3ccc(F)cc3F)c2)CC1 (centres unmarked) [Example 145, 1-(2,4-difluoro)-5-[2-fluoro-5-(4-methanesulfonyl-piperazin-1-yl)-phenyl]-3-pentafluoroethyl-4,5-dihydro-1H-pyrazole]
60	678	Cn1c(-c2ccc(C3CC(C(O)(C(F)(F)F)C(F)(F)F)=NN3c3ccc(F)cc3F)cc2)cc2ccccc21 (centres unmarked) [Example 374, 1-(2,4-difluoro-phenyl)-5-[4-(1-methyl-1H-indol-2-yl)-phenyl]-3-[di-(trifluoromethyl)-hydroxy-methyl]-4,5-dihydro-1H-pyrazole]
50	448	OC(C1=NN(c2ccc(F)cc2F)C(c2ccc(-c3cncc(F)c3)cc2)C1)(C(F)(F)F)C(F)(F)F (centres unmarked) [Example 381, 1-(2,4-difluoro-phenyl)-5-[4-(5-fluoro-pyridin-3-yl)-phenyl)-3-[di-(trifluoromethyl)-hydroxy-methyl]-4,5-dihydro-1H-pyrazole]
49	368	COc1cc(C)c(-c2ccc(C3CC(C(O)(C(F)(F)F)C(F)(F)F)=NN3c3ccc(F)cc3F)cc2)cn1 (centres unmarked) [Example 383, 1-(2,4-difluoro-phenyl)-5-[4-(6-methoxy-4-methyl-pyridin-3-yl)-phenyl]-3-[di-(trifluoromethyl)-hydroxy-methyl]-4,5-dihydro-1H-pyrazole]
66	304	CN(C)S(=O)(=O)N1CC=C(c2ccc(C3CC(C(O)(C(F)(F)F)C(F)(F)F)=NN3c3ccccc3Cl)cc2)CC1 (centres unmarked) [Example 305, 1-(2-chloro-phenyl)-5-{4-[1-dimethylsulfamoyl-1,2,3,6-tetrahydropyridin-4-yl]-phenyl}-3-[di-(trifluoromethyl)-hydroxy-methyl]-4,5-dihydro-1H-pyrazole]
126	76	CC(C)(C)OC(=O)N1CC=C(c2cccc(C3CC(C(O)(C(F)(F)F)C(F)(F)F)=NN3c3ccccc3Cl)c2)CC1 (centres unmarked) [Example 229, 1-(2-chloro-phenyl)-5-[3-(1-BOC-1,2,3,6-tetrahydropyridin-4-yl)-phenyl]-3-[di-(trifluoromethyl)-hydroxy-methyl]-4,5-dihydro-1H-pyrazole]
73	62	CN(CCCS(=O)(=O)c1cccc(-c2ccc(C3CC(C(O)(C(F)(F)F)C(F)(F)F)=NN3c3ccccc3Cl)cc2)c1)C(=O)OC(C)(C)C (centres unmarked) [Example 285, 5-{3′-[3-(N-BOC-N-methyl-amino)-propane-1-sulfonyl]-biphenyl-4-yl}-1-(2-chloro-phenyl)-3-[di-(trifluoromethyl)-hydroxy-methyl]-4,5-dihydro-1H-pyrazole]
63	31	O=C(c1ccccc1)N1CC=C(c2cccc(C3CC(C(O)(C(F)(F)F)C(F)(F)F)=NN3c3ccccc3Cl)c2)CC1 (centres unmarked) [Example 235, 5-[3-(1-benzoyl-1,2,3,6-tetrahydropyridin-4-yl)-phenyl]-1-(2-chloro-phenyl)-3-[di-(trifluoromethyl)-hydroxy-methyl]-4,5-dihydro-1H-pyrazole]
